Results: patent US11071731B2, “Allosteric modulators of the mu opioid receptor” (Chiromics, LLC, priority 2017, dated 2021)

What was measured:
[1] = target: T1, mu opioid receptor (MOR) (Homo sapiens, UniProt P35372); experiment: PathHunter β-arrestin recruitment assay, PAM mode with EC20 endomorphin-1; type: cell-based
Procedure, shortened: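 β-Arrestin recruitment to the receptor was tracked by chemiluminescent β-galactosidase activity from complementing fragments (ED on receptor, EA on β-arrestin). Per-compound outputs were EC50 and percent maximal response.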

[2] = target: T1, mu opioid receptor (MOR); experiment: Hit Hunter cAMP signaling assay (adenylyl cyclase inhibition), PAM mode with EC20 endomorphin-1; type: cell-based
[3] = maximal response, β-arrestin recruitment
[4] = β-arrestin recruitment, read-out: β-arr. EC50
[5] = cAMP EC50, adenylyl cyclase inhibition
[6] = maximal response, adenylyl cyclase inhibition
[7] = maximal response for β-arrestin recruitment
[8] = maximal response for adenylyl cyclase inhibition
[9] = adenylyl cyclase inhibition, read-out: cAMP EC50

T1 sequence (P35372 whole entry, the tested form may be a part): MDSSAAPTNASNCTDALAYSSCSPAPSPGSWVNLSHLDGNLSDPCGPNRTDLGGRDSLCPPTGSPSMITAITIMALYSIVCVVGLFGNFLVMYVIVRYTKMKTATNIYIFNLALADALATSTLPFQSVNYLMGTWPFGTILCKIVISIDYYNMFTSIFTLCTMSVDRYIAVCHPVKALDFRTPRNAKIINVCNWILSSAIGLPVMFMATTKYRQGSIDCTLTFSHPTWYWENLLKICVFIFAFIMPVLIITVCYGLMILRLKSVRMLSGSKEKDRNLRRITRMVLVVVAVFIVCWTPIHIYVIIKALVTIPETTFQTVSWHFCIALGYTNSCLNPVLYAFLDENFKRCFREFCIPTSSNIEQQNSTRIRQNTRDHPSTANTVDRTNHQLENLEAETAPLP

| SMILES | β-arr Max. Resp. [1, 3] | EC50 [1, 4] | EC50 [2, 5] | cAMP Max. Resp. [2, 6] | β-arr Max. Resp. [1, 7] | cAMP Max. Resp. [2, 8] | EC50 [2, 9] | β-arrestin Max Response ([1]; β-arrestin recruitment, activity switching by MOR PAMs) | EC50 ([1]; β-arrestin recruitment, activity switching by MOR PAMs, read-out: β-arrestin EC50) | cAMP Max Resp. ([2]; adenylyl cyclase inhibition, activity switching by MOR PAMs) | EC50 ([2]; adenylyl cyclase inhibition, activity switching by MOR PAMs, read-out: cAMP EC50) |
| --- | --- | --- | --- | --- | --- | --- | --- | --- | --- | --- | --- |
| [N-]=[N+]=Nc1ccc(N2CCCCC2c2ccc(F)c(Cl)c2)cc1 (stereo not shown) [compound 462] | E (E represents a maximal response of 40-60%) | > 2.1 µM | > 2.1 µM | D (D represents a maximal response of < 40%) |  |  |  |  |  |  |  |
| FC(F)(F)c1cccc(C2CCCCN2Cc2ccnc(Cl)c2)n1 (stereo not shown) [compound 166] |  | > 2.1 µM | > 2.1 µM |  | F (F represents a maximal response of > 60%) | E (E represents a maximal response of 40-60%) |  |  |  |  |  |
| Fc1cnc(Cl)nc1N1CCSCC1c1cccc(C(F)(F)F)c1 (stereo not shown) [Compound 456] | F (F represents a maximal response of > 60%) | > 2.1 µM |  | E (E represents a maximal response of 40-60%) |  |  | > 2.1 µM |  |  |  |  |
| Fc1cnc(Cl)nc1N1CCCCC1c1cccc(C(F)(F)F)c1F (stereo not shown) [compound 355] |  | < 0.7 µM | < 0.7 µM |  | D (D represents a maximal response of < 40%) | D (D represents a maximal response of < 40%) |  |  |  |  |  |
| O=S(=O)(c1ccc(Cl)cc1)N1CCCCC1c1ccc(Br)c(F)c1 (racemic) [compound 71] |  | > 2.1 µM |  |  | F (F represents a maximal response of > 60%) | D (D represents a maximal response of < 40%) | > 2.1 µM | F (F represents a maximal response of >60%) | > 2.1 µM | D (D represents a maximal response of < 40%) | > 2.1 µM |
| Fc1cnc(Cl)nc1N1CCCCC1c1cnccc1C(F)(F)F (stereo not shown) [compound 332] |  | < 0.7 µM | < 0.7 µM |  | D (D represents a maximal response of < 40%) | D (D represents a maximal response of < 40%) |  |  |  |  |  |
| Fc1cnc(Cl)nc1N1CCCCC1c1ccc(Cl)c(Br)c1 (single isomer, unassigned) [compound 125] |  | < 0.7 µM | < 0.7 µM |  | F (F represents a maximal response of > 60%) | F (F represents a maximal response of > 60%) |  |  |  |  |  |
| Fc1cnc(Cl)nc1N1CCCCC1c1ccc2cncn2c1 (stereo not shown) [compound 334] |  | < 0.7 µM | < 0.7 µM |  | D (D represents a maximal response of < 40%) | D (D represents a maximal response of < 40%) |  |  |  |  |  |
| Fc1cnc(Cl)nc1N1CCCCC1c1cc(Cl)cnc1F (stereo not shown) [compound 390] |  | < 0.7 µM | < 0.7 µM |  | D (D represents a maximal response of < 40%) | D (D represents a maximal response of < 40%) |  |  |  |  |  |
| Fc1cnc(Cl)nc1N1CCCCC1c1ccc(Cl)c(Cl)c1 (stereo not shown) [compound 331] |  | < 0.7 µM | < 0.7 µM |  | D (D represents a maximal response of < 40%) | D (D represents a maximal response of < 40%) |  |  |  |  |  |
| Fc1ccc(C2CC(C(F)(F)F)CN2c2nc(Cl)ncc2F)cc1Cl (stereo not shown) [compound 476] | E (E represents a maximal response of 40-60%) | > 2.1 µM |  | D (D represents a maximal response of < 40%) |  |  | > 2.1 µM |  |  |  |  |
| Fc1cnc(Cl)nc1N1CCCCC1c1ccc(Cl)c(C(F)(F)F)c1 (single isomer, unassigned) [compound 345] |  | < 0.7 µM | < 0.7 µM |  | D (D represents a maximal response of < 40%) | D (D represents a maximal response of < 40%) |  |  |  |  |  |
| O=S(=O)(c1ccc(Cl)cc1)N1CCCCC1c1ccc(Cl)c(C(F)(F)F)c1 (single isomer, unassigned) [compound 220] |  | > 2.1 µM |  |  | F (F represents a maximal response of > 60%) | D (D represents a maximal response of < 40%) | 0.7 to 2.1 µM |  |  |  |  |
| Fc1cnc(Cl)nc1N1CCCCC1c1ccnc2ccccc12 (stereo not shown) [compound 283] |  | > 2.1 µM | > 2.1 µM |  | D (D represents a maximal response of < 40%) | F (F represents a maximal response of > 60%) |  |  |  |  |  |
| Cc1ccc(C2CCCCN2S(=O)(=O)c2ccc(Cl)cc2)cc1Br (racemic) [compound 70] |  | > 2.1 µM |  |  | F (F represents a maximal response of > 60%) | E (E represents a maximal response of 40-60%) | > 2.1 µM |  |  |  |  |
| O=S(=O)(c1cc(F)ccc1F)N1CCCC(F)C1c1ccc(F)c(Br)c1 (stereo not shown) [Compound 38] |  | > 2.1 µM |  |  |  |  | > 2.1 µM |  |  |  |  |
| Fc1cnc(Cl)nc1N1CCCCC1c1ccc(Br)c(C(F)(F)F)c1 (stereo not shown) [compound 287] |  | 0.7 to 2.1 µM | < 0.7 µM |  | F (F represents a maximal response of > 60%) | D (D represents a maximal response of < 40%) |  |  |  |  |  |
